Source: PubChem BioAssay (NCI)
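Results reflect a 48-hour exposure of cells in 96-well plates to compound at five concentrations. TGI denotes the concentration required for complete inhibition of growth.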

Experiments:
Assay in all cases: NCI-60 cell line screen, 48 h
[1] = tested on: A549 NSCLC
[2] = tested on: MDA-N
[3] = tested on: HCT-116 colon
[4] = tested on: PC-3 prostate
[5] = tested on: SN12C renal
[6] = tested on: HS 578T breast
[7] = tested on: UACC-257 melanoma
[8] = tested on: NCI-H460 lung
[9] = tested on: TK-10 renal
[10] = tested on: MOLT-4 leukemia

`NCCCN1CCN(CCCNc2ccc3ncn4c5ccccc5c(=O)c2c34)CC1` was tested, and the TGI [1] was > 25 µM, the TGI [2] was 4.88 µM and the TGI [3] was 18.3 µM. For the same compound, the TGI [4] was 10.8 µM, the TGI [5] was 3.68 µM and the TGI [6] was 22.1 µM. For the same compound, the TGI [7] was 19.1 µM, the TGI [8] was 6.24 µM and the TGI [9] was > 25 µM. For the same compound, the TGI [10] was > 25 µM.

For `C1CN(C23OC4(N5CCOCC5)C5C6CC(C7C6C4C72)C53)CCO1` (centres undefined), the TGI [1] was > 100 µM, the TGI [2] was > 100 µM and the TGI [3] was > 100 µM. For the same compound, the TGI [4] was > 100 µM, the TGI [5] was > 100 µM and the TGI [6] was > 100 µM. The TGI [7] was > 100 µM, the TGI [8] was > 100 µM and the TGI [9] was > 100 µM. For the same compound, the TGI [10] was > 100 µM.

With `CCOC(=O)C1C2C1C1C(C(=O)OCC)C21` (centres undefined) the TGI [1] was > 100 µM, the TGI [2] was > 100 µM and the TGI [3] was > 100 µM. For the same compound, the TGI [4] was > 100 µM, the TGI [5] was > 100 µM and the TGI [6] was > 100 µM. The TGI [7] was > 100 µM, the TGI [8] was > 100 µM and the TGI [9] was > 100 µM. For the same compound, the TGI [10] was > 100 µM.

`O=C(O)c1cc2c(cc1CC(Cc1ccccc1)C(=O)O)CCC2` (centres undefined) was tested, and the TGI [1] was > 100 µM, the TGI [2] was > 100 µM and the TGI [3] was > 100 µM. For the same compound, the TGI [4] was > 100 µM, the TGI [5] was > 100 µM and the TGI [6] was > 100 µM. The TGI [7] was > 100 µM, the TGI [8] was > 100 µM and the TGI [9] was > 100 µM. The TGI [10] was > 100 µM.

With `COc1ccc(C2=C(N)c3ccccc3C2=O)cc1` the TGI [1] was > 100 µM, the TGI [2] was > 100 µM and the TGI [3] was > 100 µM. For the same compound, the TGI [4] was > 100 µM, the TGI [5] was > 100 µM and the TGI [6] was 63.9 µM. For the same compound, the TGI [7] was > 100 µM, the TGI [8] was > 100 µM and the TGI [9] was > 100 µM. The TGI [10] was > 100 µM.

In the case of `CCCS(=O)OC1C(C2COC(C)(C)O2)OC2OC(C)(C)OC21` (centres undefined), the TGI [1] is reported as 49.6 µM, the TGI [2] is reported as > 70.6 µM and the TGI [3] is reported as 19.4 µM. The TGI [4] was 24 µM, the TGI [5] was 31.8 µM and the TGI [6] was > 100 µM. The TGI [7] was 28.2 µM, the TGI [8] was > 62.1 µM and the TGI [9] was 31.3 µM. The TGI [10] was 6.57 µM.

For `Fc1ccccc1C1SCC2=Nc3ccccc3CN21` (centres undefined), the TGI [1] was > 100 µM, the TGI [2] was > 100 µM and the TGI [3] was > 100 µM. For the same compound, the TGI [4] was > 100 µM, the TGI [5] was > 100 µM and the TGI [6] was > 100 µM. The TGI [7] was > 100 µM, the TGI [8] was > 100 µM and the TGI [9] was > 100 µM. For the same compound, the TGI [10] was > 100 µM.

In the case of `Oc1cc(Br)cc2cc(Br)cnc12`, the TGI [1] is reported as > 100 µM, the TGI [2] is reported as > 100 µM and the TGI [3] is reported as > 100 µM. For the same compound, the TGI [4] was > 100 µM, the TGI [5] was 73 µM and the TGI [6] was 63.8 µM. For the same compound, the TGI [7] was > 100 µM, the TGI [8] was 22.1 µM and the TGI [9] was > 100 µM. It also gave a TGI [10] of 16.1 µM.

With `Cn1c(=O)n2n(c1=O)C1C(=CC2)C2C=CC1n1c(=O)n(C)c(=O)n12` (centres undefined) the TGI [1] was > 100 µM, the TGI [2] was > 100 µM and the TGI [3] was > 100 µM. For the same compound, the TGI [4] was > 100 µM, the TGI [5] was > 100 µM and the TGI [6] was > 100 µM. The TGI [7] was > 100 µM, the TGI [8] was > 100 µM and the TGI [9] was > 100 µM. For the same compound, the TGI [10] was > 100 µM.

`NC(Cc1ccccc1)C(=O)O` (centres undefined) was tested, and the TGI [1] was > 100 µM, the TGI [2] was > 100 µM and the TGI [3] was > 100 µM. The TGI [4] was > 100 µM, the TGI [5] was > 100 µM and the TGI [6] was > 100 µM. The TGI [7] was > 100 µM, the TGI [8] was > 100 µM and the TGI [9] was > 100 µM. For the same compound, the TGI [10] was > 100 µM.

Compound `CC(C)(CN1CCCCC1)C(=O)CC(SCCS(=O)(=O)O)c1ccc(Cl)c(Cl)c1` (centres undefined) has a TGI [1] of 21 µM, a TGI [2] of 8.4 µM and a TGI [3] of 10.6 µM. It also gave a TGI [4] of 17 µM, a TGI [6] of 7 µM and a TGI [7] of 20.8 µM. The TGI [8] was 11.9 µM, the TGI [9] was 18.9 µM and the TGI [10] was 8.06 µM.

With `Cc1ccc2c(=O)c3c(O)c4c(cc3n(C)c2c1)OC(C)(C)C=C4` the TGI [1] was > 10 µM, the TGI [2] was > 10 µM and the TGI [3] was > 10 µM. For the same compound, the TGI [4] was > 10 µM, the TGI [5] was > 10 µM and the TGI [6] was > 10 µM. For the same compound, the TGI [7] was > 10 µM, the TGI [8] was > 10 µM and the TGI [9] was > 10 µM. The TGI [10] was > 10 µM.

`CC1(C)CN=C(c2ccc3ccccc3c2O)N1` was tested, and the TGI [1] was > 100 µM, the TGI [2] was > 100 µM and the TGI [3] was > 100 µM. For the same compound, the TGI [4] was > 100 µM, the TGI [5] was > 100 µM and the TGI [6] was > 100 µM. For the same compound, the TGI [7] was > 100 µM, the TGI [8] was > 100 µM and the TGI [9] was > 100 µM. The TGI [10] was > 100 µM.

With `C[N+](C)(C)c1nc(N)nc2c1ncn2C1OC(CO)C(O)C1O` (centres undefined) the TGI [1] was > 100 µM, the TGI [2] was > 100 µM and the TGI [3] was > 100 µM. For the same compound, the TGI [4] was > 100 µM, the TGI [5] was > 100 µM and the TGI [6] was > 100 µM. The TGI [7] was > 100 µM, the TGI [8] was > 100 µM and the TGI [9] was > 100 µM. For the same compound, the TGI [10] was > 100 µM.

Compound `CCCCCCCCCCCOCCC1C(C(C)OCCN2CCCC2)OC2OC(C)(C)OC21` (centres undefined) has a TGI [1] of 11.5 µM, a TGI [2] of 3.52 µM and a TGI [3] of 3.38 µM. For the same compound, the TGI [4] was 6.05 µM, the TGI [5] was 7.31 µM and the TGI [6] was 6.93 µM. It also gave a TGI [7] of 3.78 µM, a TGI [8] of 5.05 µM and a TGI [9] of 6.6 µM. The TGI [10] was 5.93 µM.

With `COC(=O)[C@]12CCC(=O)N1[C@H](C(=O)O)Cc1c2[nH]c2ccccc12` the TGI [1] was > 100 µM, the TGI [2] was > 100 µM and the TGI [3] was > 100 µM. The TGI [4] was > 100 µM, the TGI [5] was > 100 µM and the TGI [6] was > 100 µM. The TGI [7] was > 100 µM, the TGI [8] was > 100 µM and the TGI [9] was > 100 µM. For the same compound, the TGI [10] was > 100 µM.

In the case of `COc1ccc(N2C(=O)CSC2c2cc(OC)c(OC)c(OC)c2)cc1` (centres undefined), the TGI [1] is reported as 83.4 µM, the TGI [2] is reported as 55.9 µM and the TGI [3] is reported as 33.4 µM. The TGI [4] was > 100 µM, the TGI [5] was 65.9 µM and the TGI [6] was > 100 µM. For the same compound, the TGI [7] was 28.9 µM, the TGI [8] was 63.5 µM and the TGI [9] was > 100 µM. The TGI [10] was > 100 µM.

In the case of `O/N=C1/CCCCC1NO` (centres undefined), the TGI [1] is reported as > 100 µM, the TGI [2] is reported as > 100 µM and the TGI [3] is reported as > 100 µM. The TGI [4] was > 100 µM, the TGI [5] was > 100 µM and the TGI [6] was > 100 µM. The TGI [7] was > 100 µM, the TGI [8] was > 100 µM and the TGI [9] was > 100 µM. The TGI [10] was > 100 µM.

For `Cc1nc2ccccc2n1CCc1nc2ccccc2[nH]1`, the TGI [1] was > 100 µM, the TGI [2] was > 100 µM and the TGI [3] was > 100 µM. The TGI [4] was > 100 µM, the TGI [5] was > 100 µM and the TGI [6] was > 100 µM. The TGI [7] was > 100 µM, the TGI [8] was > 100 µM and the TGI [9] was > 100 µM. The TGI [10] was > 100 µM.

In the case of `COc1ccc(/C=C(\C#N)c2nc(-c3cc4ccccc4oc3=O)cs2)cc1`, the TGI [1] is reported as > 100 µM, the TGI [2] is reported as > 100 µM and the TGI [3] is reported as > 100 µM. The TGI [4] was > 100 µM, the TGI [5] was > 100 µM and the TGI [6] was > 100 µM. The TGI [7] was > 100 µM, the TGI [8] was 57.1 µM and the TGI [9] was 65.6 µM. The TGI [10] was > 100 µM.
